From patent publication USRE40387E1, “Pharmaceutical compositions, dosage forms and methods for oral administration of epothilones” (Bristol-Myers Squibb Company, priority 2001, dated 2008)

Assay: Stability of liquid formulation in 80:20 propylene glycol:ethanol
Format: physicochemical
Details: for can be stored for up to: 2.5 mg/mL to 12.5 mg/mL in 80:20 propylene glycol:ethanol
Protocol: The stability of compound (A) in 80:20 propylene glycol:ethanol was evaluated by reconstituting 25 mg Compound (A) with 80:20 propylene glycol:ethanol to provide a liquid oral dosage form at concentrations of 2.5 mg/mL to 12.5 mg/mL. The resulting liquid oral dosage form was then stored up to 20 hours at ambient temperature (20° C. to 25° C.) and room light and at refrigerated temperature (2° C. to 8° C.).
The change in total impurities was attributed to an increase of an oxazine impurity/degradant whose structure is depicted below: [drawing 10] Samples were analyzed using HPLC with a 75 mm×4.6 mm i.d., 3.5 :m particle sizeWaters Symmetry Shield RP8 column and with UV detection at 240 nm. 10 :L injection volumes were used, the column was maintained at ambient temperature and the flow rate was 1 mL/min. Analysis times were 1 hour and samples were eluted using gradient elution with a mobile phase of water (0.05% acetic acid) (mobil phase A) and a mobile phase of acetonitrile (0.05% acetic acid). The elution profile is described in the table below.

C/C(=C\c1csc(C)n1)[C@@H]1C[C@@H]2O[C@]2(C)CCC[C@H](C)[C@H](O)[C@@H](C)C(=O)C(C)(C)[C@@H](O)CC(=O)N1 (relative stereo) [Compound (A), [1S-[1R*,3R*(E),7R*,10S*,11R*,12R*,16S*]]-7,11-dihydroxy 8,8,10,12,16-pentamethyl-3-[1-methyl-2-(2-methyl-4-thiazolyl)ethenyl-4-aza-17-oxobicyclo[14.1.0]heptadecane-5,9-dione]
can be stored for up to (ambient temperature): up to 6 hours
can be stored for up to (refrigerated temperature): up to 20 hours
total impurities/degradants and potency (ambient temperature (20° C. to 25° C.) and room light, 20 hours): increase in total impurities/degradants and a decrease in potency
total impurities/degradants (refrigerated temperature (2° C. to 8° C.), 20 hours): slight increase in total impurities/degradants
appearance of the liquid oral dosage form (up to 20 hours, either storage condition): No changes from initial
